Entries after “also recorded” stand apart in the source; their conditions may differ.
How the values were obtained:
[1] = cited from earlier work
BCKDC = experiment: Leucine oxidation in lymphoblast cells in presence of CIC; assay type: cell-based, human; conditions: patient 3 lymphoblasts, 1 mM phenylbutyrate 48 h, 1 mM CIC in the assay
Description: FIGS. 8A-8C. FIGS. 8A and 8B show leucine oxidation in presence of CIC in lymphoblast cells from control subjects (C-660, C-661) and MSUD patients (P-1, -2, -3, -4, -5) untreated or treated with 1 mM phenylbutyrate for 48 h. Leucine oxidation was measured by using radioactive assay as described in Materials and Methods and is expressed in pmol CO2 released/min/mg protein. CIC was added to all reactions in 1 mM concentration. Values are means±SD (n=3), * p≥0.05, **p≥0.01. […] Images are representative of two independent experiments.
Because phenylbutyrate affects E1α phosphorylation state in vivo (see FIG. 5), leucine oxidation was measured in the same cell lines as in FIG. […] with CIC in the assay. […] Changes in BCAT isoenzyme activity also impacts BCKA production, in specific cases. All patient cell lines accumulated more KIC than observed in control cell lines.

[2] = system: phosphorylated E1-α subunit of BCKDC; experiment: Western blot of liver extract for phosphorylated E1 subunit of BCKDC; assay type: in vivo, C57B6 mice; conditions: 50 mg/kg/day oral gavage in 3 administrations, 3 days, N=5 per group, p<0.05
Description: FIG. 5 is a Western blot analysis of liver extract using an antibody against the phosphorylated form of the E1 subunit of BCKDC from C57B6 mice (N=5 mice per group) treated with phenylbutyrate or placebo. To investigate the effect and mechanism of phenylbutyrate on the BCKD, mice (n=5) were treated with saline or 50 mg/kg/day of phenylbutyrate divided into three administrations for three consecutive days and after three days of treatment they were sacrificed for analyses. Proteins were extracted from mouse livers and a western blot performed using an anti-phosphoserine BCKDC antibody, the anti-BCKDC-E1 antibody, and the anti-BCKDC-E2 antibody. Each lane corresponds to the liver extract from an independent mouse (from #1 to #3).
A post-translational mechanism of regulation of the activity of BCKDC by covalent modification by phosphorylation. In order to investigate the effect and mechanism of phenylbutyrate-mediated increased activity of BCKDC, Buphenyl® or saline were given orally to C57B6 mice (N=5 mice per group) by gavage at the dose of 50 mg/kg/day divided into 3 administrations for 3 consecutive days. After three days of treatment the animals were sacrificed to harvest the liver samples. Proteins were extracted from mouse livers by homogenizing the tissue in a buffer containing 5% SDS and 0.0625 M TrisHCl. […]

phosphorylated E1 = biological target: T1, phosphorylated E1 (Homo sapiens, UniProt P12694+P21953); experiment: E1 decarboxylase activity measured after inactivation by BDK; assay type: biochemical
T1 sequence (P12694 46-445): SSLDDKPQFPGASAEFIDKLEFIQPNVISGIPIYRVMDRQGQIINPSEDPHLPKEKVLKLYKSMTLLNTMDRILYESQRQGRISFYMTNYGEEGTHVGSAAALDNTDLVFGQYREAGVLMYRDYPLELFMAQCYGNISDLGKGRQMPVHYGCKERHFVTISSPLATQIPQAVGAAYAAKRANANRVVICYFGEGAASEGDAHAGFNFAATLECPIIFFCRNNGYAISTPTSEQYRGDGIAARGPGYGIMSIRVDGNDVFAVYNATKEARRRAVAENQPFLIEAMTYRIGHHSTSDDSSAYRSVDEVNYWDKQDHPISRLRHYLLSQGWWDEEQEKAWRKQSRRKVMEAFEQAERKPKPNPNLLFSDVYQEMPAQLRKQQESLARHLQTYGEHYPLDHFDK
T1 sequence (P21953 51-392): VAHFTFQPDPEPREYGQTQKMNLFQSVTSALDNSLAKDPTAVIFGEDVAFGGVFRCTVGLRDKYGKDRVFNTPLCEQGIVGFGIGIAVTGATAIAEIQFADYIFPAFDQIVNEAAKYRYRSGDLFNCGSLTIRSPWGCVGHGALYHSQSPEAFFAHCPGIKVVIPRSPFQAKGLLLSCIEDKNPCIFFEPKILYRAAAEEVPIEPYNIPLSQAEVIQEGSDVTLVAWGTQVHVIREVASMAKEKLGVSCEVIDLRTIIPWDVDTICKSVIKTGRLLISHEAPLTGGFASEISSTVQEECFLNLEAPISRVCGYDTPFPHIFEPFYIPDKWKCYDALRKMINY
Description: To determine the effect of phenylbutyrate on individual BCAA catabolic enzymes, activities of mitochondrial branched chain amino transferase (BCATm) and BCKDC enzymes were measured with and without phenylbutyrate using purified recombinant enzymes. BCATm generates the BCKA products that are elevated in MSUD and are the substrates for BCKDC. BCATm activity was measured at pH 8.0 and 298 K as described in Example 2. Kinetics of the E1 decarboxylase reaction with and without phenylbutyrate were determined in the presence of an artificial electron acceptor 2, 6-dichlorophenolindophenol (DCPIP). The assay mixture contained 100 mM potassium phosphate, pH 7.5, 2.0 mM MgCl2, 0.2 mM thiamin diphosphate (ThDP) and 0.1 mM DCPIP. The rate of decarboxylation at 30° C. was measured by monitoring the reduction of the dye at 600 nm (24, 25). For the overall BCKDC activity assay, the enzymes were exchanged into phosphate buffer (30 mM potassium phosphate, pH 7.5) containing 5 mM DTT using a PD-10 column and the enzyme concentrations were calculated from the absorption maxima at 280 nm. […] The overall reaction was monitored by formation of NADH at 340 nm. The apparent rate constants (kapp) at different substrate concentrations for all of the above assays were determined from the absorption changes at the individual wavelength maximum. […]

effect on phosphorylated E1 (inactive enzyme) (phosphorylated E1): did not have an effect | kcat, KMV (phosphorylated E1; E1 phosphorylated first with BDK (0.1 μg) and ATP (0.4 mM), [+] Phenylbutyrate): 0.01 ± 0.0017 s⁻¹
SMILES: O=C([O-])CCCc1ccccc1.[Na+] [phenylbutyrate, sodium 4-phenylbutyrate]
time at which measurable plasma levels are detected ([1]; after oral administration of phenylbutyrate): 15 min | Peak concentrations of phenylbutyrate ([1]; oral administration): approximately 1 mmol/1 | time at which peak concentrations are reached ([1]; oral administration): 1 h | elimination half-life ([1]; oral phenylbutyrate, estimated): 48 min | fraction of the drug excreted by the kidneys as the conjugated product PAG ([1]; within 24 h, most subjects): 80-100% | leucine oxidation rates (BCKDC): nearly doubled | phosphorylated E1-α subunit of BCKDC in liver vs saline treated mice [2]: significant reduction; also recorded: significantly reduced

— patent publication US11786494B2, “Methods of modulation of branched chain acids and uses thereof” (Baylor College of Medicine, priority 2009, dated 2023)
